Measurements published in the supplement of paper PMC10883282.
± gives the standard deviation of the averaged measurements.

Tested on: HT1080
Test: relative viability vs DMSO control (72 h) (fraction); higher = more viable cells
Procedure, shortened: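 Relative viability is percent growth read by ATPLite and averaged over up to triplicate wells. Sarcoma cells were seeded in 384-well plates to reach 80–90% confluence and given 2.5 µl of serially diluted compound after 24 h, from source plates of 10 mM to 0.0002 mM. Incubation lasted 72 h at 37 °C, 5% CO2, with 0.1% DMSO vehicle and a 5 µM positive control, and the data were rescaled so 1 equals full and 0 equals none.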

SMILES | relative viability (0.00017 µM) | relative viability (0.00051 µM) | relative viability (0.00152 µM) | relative viability (0.00457 µM) | relative viability (0.01372 µM) | relative viability (0.04115 µM) | relative viability (0.1235 µM) | relative viability (0.3704 µM) | relative viability (1.111 µM) | relative viability (3.333 µM) | relative viability (10 µM)
CCN1CCN(Cc2ccc(Nc3ncc(F)c(-c4cc(F)c5nc(C)n(C(C)C)c5c4)n3)nc2)CC1 [Abemaciclib] | 1.05 ± 0.0085 | 1.05 ± 0.034 | 1.06 ± 0.018 | 1.08 ± 0.034 | 1.06 ± 0.011 | 1.07 ± 0.018 | 1.13 ± 0.053 | 1.18 ± 0.045 | 1.15 ± 0.055 | 1.07 ± 0.045 | 0.926 ± 0.063
CC(C)NC(=O)C1CCC(n2c(NC(=O)c3ccc(F)cc3)nc3ccc(CN4CCC(C(C)(C)O)CC4)cc32)CC1 (stereo not drawn) [Belizatinib] | 1.079 ± 0.0088 | 1.09 ± 0.036 | 1.05 ± 0.018 | 1.08 ± 0.057 | 1.07 ± 0.052 | 1.08 ± 0.021 | 1.062 ± 0.0014 | 1.06 ± 0.069 | 1.03 ± 0.056 | 0.866 ± 0.014 | 0.4946 ± 0.0036
CC[C@H](Nc1ncnc2[nH]cnc12)c1nc2cccc(F)c2c(=O)n1-c1ccccc1 [Idelalisib] | 1.1 ± 0.032 | 1.1 ± 0.025 | 1.07 ± 0.017 | 1.12 ± 0.039 | 1.0913 ± 0.00051 | 1.12 ± 0.021 | 1.09 ± 0.038 | 1.12 ± 0.051 | 1.07 ± 0.027 | 1.08 ± 0.014 | 1.08 ± 0.04
CC(C)(C)c1cc(NC(=O)Nc2ccc(-c3cn4c(n3)sc3cc(OCCN5CCOCC5)ccc34)cc2)no1 [Quizartinib] | 1.12 ± 0.013 | 1.09 ± 0.016 | 1.087 ± 0.0076 | 1.08 ± 0.029 | 1.07 ± 0.014 | 1.11 ± 0.034 | 1.1 ± 0.035 | 1.11 ± 0.012 | 1.04 ± 0.042 | 0.907 ± 0.048 | 0.806 ± 0.042
Cc1cnc(Nc2ccc(OCCN3CCCC3)cc2)nc1Nc1cccc(S(=O)(=O)NC(C)(C)C)c1 [Fedratinib] | 1.11 ± 0.027 | 1.03 ± 0.056 | 1.08 ± 0.0082 | 1.06 ± 0.032 | 1.07 ± 0.044 | 1.05 ± 0.044 | 1.04 ± 0.009 | 1.03 ± 0.022 | 0.813 ± 0.015 | 0.391 ± 0.014 | 0.0298 ± 0.0037
CC1(C)CNc2cc(NC(=O)c3cccnc3NCc3ccncc3)ccc21 [Motesanib] | 1.03 ± 0.036 | 0.975 ± 0.032 | 1.03 ± 0.016 | 1.03 ± 0.023 | 1.04 ± 0.041 | 1 ± 0.04 | 1.02 ± 0.0035 | 0.98 ± 0.012 | 1.01 ± 0.018 | 0.9961 ± 0.0086 | 0.976 ± 0.015
Nc1cc(C(F)(F)F)c(-c2cc(N3CCOCC3)nc(N3CCOCC3)n2)cn1 [Buparlisib] | 1.01 ± 0.077 | 1.02 ± 0.024 | 1.018 ± 0.0073 | 1.05 ± 0.036 | 1.04 ± 0.015 | 1.03 ± 0.022 | 1.03 ± 0.039 | 1.07 ± 0.013 | 1 ± 0.013 | 0.11 ± 0.0037 | 0.0244 ± 0.0015
Cc1cc(C)c(/C=C2\C(=O)Nc3ccccc32)[nH]1 [Semaxanib] | 0.923 ± 0.051 | 0.964 ± 0.038 | 0.94 ± 0.023 | 0.945 ± 0.018 | 0.926 ± 0.022 | 0.946 ± 0.049 | 0.893 ± 0.059 | 0.921 ± 0.018 | 0.928 ± 0.023 | 0.939 ± 0.034 | 0.888 ± 0.065
CCc1cc2c(cc1N1CCC(N3CCOCC3)CC1)C(C)(C)c1[nH]c3cc(C#N)ccc3c1C2=O [Alectinib] | 1.07 ± 0.018 | 1.09 ± 0.0051 | 1.06 ± 0.032 | 1.09 ± 0.014 | 1.077 ± 0.0047 | 1.11 ± 0.045 | 1.08 ± 0.02 | 1.11 ± 0.028 | 1.07 ± 0.024 | 1.07 ± 0.047 | 1.02 ± 0.051
Cn1cnc2c(F)c(Nc3ccc(Br)cc3F)c(C(=O)NOCCO)cc21 [Binimetinib] | 1.1 ± 0.019 | 1.09 ± 0.031 | 1.09 ± 0.021 | 1.03 ± 0.026 | 1.031 ± 0.0075 | 0.8738 ± 0.0029 | 0.752 ± 0.017 | 0.626 ± 0.015 | 0.577 ± 0.026 | 0.518 ± 0.034 | 0.451 ± 0.032
C=CC(=O)Nc1cccc(Oc2nc(Nc3ccc(N4CCN(C)CC4)cc3)nc3ccsc23)c1 [Olmutinib] | 1.05 ± 0.021 | 1.08 ± 0.014 | 1.07 ± 0.017 | 1.07 ± 0.018 | 1.05 ± 0.049 | 1.0797 ± 0.00078 | 1.07 ± 0.011 | 1.06 ± 0.019 | 1.04 ± 0.015 | 1.03 ± 0.037 | 0.492 ± 0.13
CN1CCN(c2ccc3nc(-c4c(N)c5c(F)cccc5[nH]c4=O)[nH]c3c2)CC1 [Dovitinib] | 1.1 ± 0.047 | 1.09 ± 0.053 | 1.05 ± 0.046 | 1.1 ± 0.028 | 1.09 ± 0.013 | 1.095 ± 0.0071 | 1.11 ± 0.023 | 1.155 ± 0.0091 | 0.975 ± 0.017 | 0.632 ± 0.023 | 0.154 ± 0.08
O=C(Cc1ccc(-c2ccc(OCCN3CCOCC3)cc2)cn1)NCc1ccccc1 [KX2-391] | 1.07 ± 0.025 | 1.1 ± 0.013 | 1.11 ± 0.019 | 1.1 ± 0.033 | 1.06 ± 0.013 | 1.06 ± 0.022 | 0.117 ± 0.0064 | 0.0565 ± 0.0006 | 0.0434 ± 0.0068 | 0.0333 ± 0.0026 | 0.0365 ± 0.0027
C[C@@H]1COCCN1c1cc(-c2ccnn2C)c2ccnc(-c3ccn[nH]3)c2n1 | 1.044 ± 0.0047 | 1.03 ± 0.014 | 1.024 ± 0.0029 | 1.02 ± 0.025 | 0.998 ± 0.035 | 0.954 ± 0.017 | 0.735 ± 0.037 | 0.28 ± 0.0093 | 0.191 ± 0.0041 | 0.16 ± 0.0093 | 0.1555 ± 0.00028
CNC(=O)c1cc(Oc2ccc(NC(=O)Nc3ccc(Cl)c(C(F)(F)F)c3)c(F)c2)ccn1 [Regorafenib] | 1.1 ± 0.055 | 1.128 ± 0.0073 | 1.09 ± 0.012 | 1.09 ± 0.012 | 1.12 ± 0.028 | 1.11 ± 0.056 | 1.1 ± 0.02 | 1.08 ± 0.021 | 1.05 ± 0.014 | 0.952 ± 0.028 | 0.542 ± 0.062
Cc1ccc(NC(=O)c2ccc(CN3CCN(C)CC3)cc2)cc1Nc1nc(-c2cccnc2)cs1 [Masitinib] | 1.02 ± 0.029 | 1.06 ± 0.022 | 1.06 ± 0.0062 | 1.08 ± 0.033 | 1.05 ± 0.019 | 1.06 ± 0.021 | 1.03 ± 0.032 | 1.02 ± 0.044 | 0.89 ± 0.02 | 0.642 ± 0.06 | 0.177 ± 0.012
CNC(=O)c1ccc(-c2cnc3ncc(Cc4ccc5ncccc5c4)n3n2)cc1F [Capmatinib] | 1.06 ± 0.022 | 1.06 ± 0.041 | 1.06 ± 0.018 | 1.06 ± 0.014 | 1.06 ± 0.012 | 1.04 ± 0.019 | 1.05 ± 0.014 | 1.05 ± 0.028 | 1.044 ± 0.01 | 0.989 ± 0.015 | 1.005 ± 0.0012
CCCS(=O)(=O)Nc1ccc(F)c(C(=O)c2c[nH]c3ncc(-c4ccc(Cl)cc4)cc23)c1F [Vemurafenib] | 1.1 ± 0.032 | 1.07 ± 0.049 | 1.09 ± 0.05 | 1.08 ± 0.031 | 1.08 ± 0.044 | 1.07 ± 0.045 | 1.07 ± 0.043 | 1.08 ± 0.04 | 1.13 ± 0.031 | 1.04 ± 0.023 | 0.663 ± 0.25
